Values after ≈ are worked out from the molar mass of the structure shown.
Legend:
[1] = target: T1, Tyrosinase (Homo sapiens, UniProt P14679); assay: Inhibition of tyrosinase (unknown origin) using DOPA as substrate incubated for 15 min by spectrophotometer assay
T1 sequence (P14679 whole entry): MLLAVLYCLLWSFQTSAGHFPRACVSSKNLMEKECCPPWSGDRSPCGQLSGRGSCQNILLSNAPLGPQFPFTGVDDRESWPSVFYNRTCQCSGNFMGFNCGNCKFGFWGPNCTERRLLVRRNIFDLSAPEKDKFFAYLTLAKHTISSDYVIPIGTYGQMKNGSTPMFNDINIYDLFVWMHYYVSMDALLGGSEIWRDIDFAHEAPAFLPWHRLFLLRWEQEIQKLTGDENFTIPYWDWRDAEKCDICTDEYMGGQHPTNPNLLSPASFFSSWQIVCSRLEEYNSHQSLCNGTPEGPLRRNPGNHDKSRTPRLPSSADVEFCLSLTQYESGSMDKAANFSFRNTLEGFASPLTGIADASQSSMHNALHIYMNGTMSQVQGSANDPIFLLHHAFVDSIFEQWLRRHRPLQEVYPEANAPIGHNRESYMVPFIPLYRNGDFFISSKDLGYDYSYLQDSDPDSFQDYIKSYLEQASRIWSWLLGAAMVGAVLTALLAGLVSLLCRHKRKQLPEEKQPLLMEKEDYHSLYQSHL

[2] = tested on: Salmonella typhimurium; assay: Antibacterial activity against Salmonella enterica subsp. enterica serovar Typhimurium ATCC 14028 assessed as inhibition of bacterial growth incubated for 18 to 24 hrs by serial dilution method; type: functional; settings: time 18-24 hrs
[3] = tested on: Proteus vulgaris; assay: Antibacterial activity against Proteus vulgaris ATCC 13315 assessed as inhibition of bacterial growth incubated for 18 to 24 hrs by serial dilution method; type: functional; settings: time 18-24 hrs
[4] = tested on: Klebsiella pneumoniae; assay: Antibacterial activity against Klebsiella pneumoniae ATCC 13883 assessed as inhibition of bacterial growth incubated for 18 to 24 hrs by serial dilution method; type: functional; settings: time 18-24 hrs
[5] = tested on: Staphylococcus epidermidis; assay: Antibacterial activity against Staphylococcus epidermidis ATCC 14990 assessed as inhibition of bacterial growth incubated for 18 to 24 hrs by serial dilution method; type: functional; settings: time 18-24 hrs
[6] = tested on: Bacillus subtilis; assay: Antibacterial activity against Bacillus subtilis ATCC 66333 assessed as inhibition of bacterial growth incubated for 18 to 24 hrs by serial dilution method; type: functional; settings: time 18-24 hrs
[7] = tested on: Enterobacter cloacae; assay: Antibacterial activity against Enterobacter cloacae ATCC 13047 assessed as inhibition of bacterial growth incubated for 18 to 24 hrs by serial dilution method; type: functional; settings: time 18-24 hrs
[8] = target: T2, Tyrosinase (Agaricus bisporus, UniProt O42713); assay: Inhibition of mushroom tyrosinase using L-DOPA as substrate incubated for 20 mins by microplate reader assay
T2 sequence (O42713 whole entry): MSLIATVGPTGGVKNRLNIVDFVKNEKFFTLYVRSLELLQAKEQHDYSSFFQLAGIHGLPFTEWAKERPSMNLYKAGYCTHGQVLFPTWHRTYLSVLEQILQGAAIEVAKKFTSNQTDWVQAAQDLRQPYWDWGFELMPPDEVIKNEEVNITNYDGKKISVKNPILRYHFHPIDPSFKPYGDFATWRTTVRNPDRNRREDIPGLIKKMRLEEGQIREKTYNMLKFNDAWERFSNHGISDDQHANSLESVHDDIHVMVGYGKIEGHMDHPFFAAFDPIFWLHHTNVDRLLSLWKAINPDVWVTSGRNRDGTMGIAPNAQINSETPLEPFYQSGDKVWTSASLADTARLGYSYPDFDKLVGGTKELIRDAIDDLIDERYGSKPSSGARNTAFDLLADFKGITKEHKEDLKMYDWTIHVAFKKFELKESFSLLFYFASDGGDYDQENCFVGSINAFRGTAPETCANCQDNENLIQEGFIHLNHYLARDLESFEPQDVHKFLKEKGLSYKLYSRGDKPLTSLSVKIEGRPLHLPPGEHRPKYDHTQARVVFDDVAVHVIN

[9] = tested on: Staphylococcus epidermidis; assay: microbe, parasite or virus in culture; settings: TISTR 517
Description: Antibacterial activity against Staphylococcus epidermidis TISTR 517 assessed as inhibition of bacterial growth by broth microdilution method

[10] = target: T2, Tyrosinase; assay: Inhibition of mushroom tyrosinase using L-DOPA as substrate pre-incubated for 10 mins followed by substrate addition and measured after 20 mins by microplate reader assay
[11] = tested on: Staphylococcus aureus; assay: Antibacterial activity against Methicillin-resistant Staphylococcus aureus assessed as inhibition of bacterial growth by broth microdilution method
[12] = tested on: Staphylococcus aureus; assay: microbe, parasite or virus in culture; settings: ATTC 25923
Description: Antibacterial activity against Staphylococcus aureus ATTC 25923 assessed as inhibition of bacterial growth by broth microdilution method

[13] = tested on: Bacillus subtilis; assay: Antibacterial activity against Bacillus subtilis assessed as zone of inhibition at 300 ug/ml; type: functional; settings: read-out: IZ
[14] = tested on: Fusobacterium nucleatum; assay: Antibacterial activity against Fusobacterium nucleatum ATCC 10953 assessed as inhibition of bacterial growth incubated for 48 hrs by microbroth dilution method; type: functional
[15] = tested on: Enterococcus faecalis; assay: Antibacterial activity against Enterococcus faecalis assessed as zone of inhibition; type: functional, organism-based
[16] = tested on: Staphylococcus aureus; assay: Antibacterial activity against Methicillin-resistant Staphylococcus aureus assessed as inhibition of bacterial growth by agar dilution method; type: functional
[17] = tested on: Staphylococcus aureus; assay: Antibacterial activity against Staphylococcus aureus assessed as zone of inhibition; type: functional
[18] = tested on: Staphylococcus aureus; assay: Antibacterial activity against Staphylococcus aureus ATCC 13301 assessed as zone of inhibition at 10 ug per disk incubated for 12 hrs by paper-disk diffusion assay; type: functional; settings: read-out: IZ
[19] = target: T2, Tyrosinase; assay: Inhibition of mushroom tyrosinase using L-DOPA as substrate incubated for 10 mins by spectrophotometer assay
[20] = tested on: Bacillus cereus; assay: Antibacterial activity against Bacillus cereus ATCC 27348 assessed as zone of inhibition at 10 ug per disk incubated for 12 hrs by paper-disk diffusion assay; type: functional; settings: read-out: IZ
[21] = tested on: Bacillus subtilis; assay: Antibacterial activity against Bacillus subtilis ATCC 9372 assessed as zone of inhibition at 10 ug per disk incubated for 12 hrs by paper-disk diffusion assay; type: functional; settings: read-out: IZ
[22] = tested on: Staphylococcus epidermidis; assay: Antibacterial activity against Staphylococcus epidermidis ATCC 35984 assessed as inhibition of bacterial growth incubated for 24 hrs by two-fold serial dilution method; type: functional

Q: `C[C@@H]1O[C@@H](OC[C@H]2O[C@@H](Oc3c(-c4ccc(O)cc4)oc4cc(O)cc(O)c4c3=O)[C@H](O)[C@@H](O)[C@@H]2O)[C@H](O)[C@H](O)[C@H]1O` [NICOTIFLOROSIDE] was tested. Which IC50 [1] did it give?
A: The IC50 was 1.53 µM.

Q: For `O=c1cc2n(c3ccccc13)[B-](F)(F)[n+]1ccccc1-2`, which MIC [2] is on record?
A: The MIC was ≤ 18.8 µg/mL.

Q: And the MIC [3]?
A: Its MIC is ≤ 18.8 µg/mL.

Q: What about the MIC [4] of the same compound?
A: The MIC was ≤ 18.8 µg/mL.

Q: And the MIC [5]?
A: Its MIC is ≤ 18.8 µg/mL.

Q: What about the MIC [6] of the same compound?
A: Its MIC is ≤ 18.8 µg/mL.

Q: And the MIC [7]?
A: The MIC was ≤ 18.8 µg/mL.

Q: And the IC50 [8]?
A: The IC50 was > 741 µM.

Q: For `Nc1ccccc1C1=NNC(c2ccncc2)C1` (configuration not stated), which MIC [5] is on record?
A: The MIC was 37.5 µg/mL (≈ 157 µM).

Q: What about the IC50 [8] of the same compound?
A: The IC50 was 420 µM.

Q: With `CC(C)=CCC/C(C)=C/Cc1c(O)ccc(C=O)c1O` as the compound, how does the MIC [9] read?
A: The MIC was < 8 µg/mL.

Q: What about the IC50 [10] of the same compound?
A: The IC50 was > 729 µM.

Q: What about the MIC [11] of the same compound?
A: The MIC was < 8 µg/mL.

Q: What about the MIC [12] of the same compound?
A: The MIC was < 8 µg/mL.

Q: With `F[B-]1(F)Nc2ccccc2C2=[N+]1NC(c1cccnc1)C2` (configuration not stated) as the compound, how does the MIC [5] read?
A: The MIC was 18.8 µg/mL (≈ 65.5 µM).

Q: What about the IC50 [8] of the same compound?
A: Its IC50 is 350 µM.

Q: With `Nc1ccccc1C1=NNC(c2ccccn2)C1` (configuration not stated) as the compound, how does the MIC [2] read?
A: The MIC was 18.8 µg/mL (≈ 78.7 µM).

Q: What about the MIC [3] of the same compound?
A: The MIC was 18.8 µg/mL (≈ 78.7 µM).

Q: And the MIC [4]?
A: The MIC was 18.8 µg/mL (≈ 78.7 µM).

Q: What about the MIC [5] of the same compound?
A: Its MIC is 18.8 µg/mL (≈ 78.7 µM).

Q: What about the MIC [6] of the same compound?
A: Its MIC is 18.8 µg/mL (≈ 78.7 µM).

Q: What about the MIC [7] of the same compound?
A: The MIC was 18.8 µg/mL (≈ 78.7 µM).

Q: And the IC50 [8]?
A: The IC50 was 420 µM.

Q: Which zone of inhibition at 300 µg/mL [13] does the source give for `CC1(C)S[C@@H]2[C@H](NC(=O)[C@H](N)c3ccccc3)C(=O)N2[C@H]1C(=O)O` [AMPICILLIN] here?
A: The zone of inhibition at 300 µg/mL was 17.9 mm.

Q: Which MIC [14] does the source give for `OCCc1ccccc1` [PHENYLETHYL ALCOHOL] here?
A: Its MIC is 8 µg/mL (≈ 65.5 µM).

Q: What about the IC50 [1] of the same compound?
A: Its IC50 is 2580 µM.

Q: Which inhibition zone (IZ) [15] does the source give for GENTAMICIN here?
A: The inhibition zone (IZ) was 10.6 mm.

Q: For `F[B-]1(F)Nc2ccccc2C2=[N+]1NC(c1ccccn1)C2` (configuration not stated), which MIC [2] is on record?
A: The MIC was 37.5 µg/mL (≈ 131 µM).

Q: What about the MIC [3] of the same compound?
A: The MIC was 37.5 µg/mL (≈ 131 µM).

Q: What about the MIC [4] of the same compound?
A: Its MIC is 37.5 µg/mL (≈ 131 µM).

Q: And the MIC [5]?
A: The MIC was 37.5 µg/mL (≈ 131 µM).

Q: And the MIC [6]?
A: Its MIC is 37.5 µg/mL (≈ 131 µM).

Q: What about the MIC [7] of the same compound?
A: The MIC was 37.5 µg/mL (≈ 131 µM).

Q: What about the IC50 [8] of the same compound?
A: Its IC50 is 350 µM.

Q: What does the source list for `O=c1cc(-c2ccc(O)c(O)c2)oc2cc(O)cc(O)c12` [LUTEOLIN]?
A: MIC [16]: 31.2 µg/mL (≈ 109 µM); IC50 [1]: 2.14 µM

Q: For `CN[C@@H]1[C@H](O[C@H]2[C@H](O[C@H]3[C@H](O)[C@@H](O)[C@H](N=C(N)N)[C@@H](O)[C@@H]3N=C(N)N)O[C@@H](C)[C@]2(O)C=O)O[C@@H](CO)[C@H](O)[C@H]1O` [STREPTOMYCIN], which “inhibition zone (IZ)” value [17] is on record?
A: The value was 20.3 mm.

Q: How did the MIC [14] turn out when `CC(C)=CCC[C@@](C)(O)[C@@H]1CC=C(C)CC1` was run?
A: Its MIC is 8 µg/mL (≈ 36 µM).

Q: What about the IC50 [1] of the same compound?
A: Its IC50 is 2860 µM.

Q: Which IC50 [8] does the source give for `CCn1cc(C(=O)O)c(=O)c2cc(F)c(N3CCNCC3)cc21` [NORFLOXACIN] here?
A: The IC50 was 2.19 µM.

Q: `C[C@@H]1O[C@@H](OC[C@H]2O[C@@H](Oc3c(-c4ccc(O)c(O)c4)oc4cc(O)cc(O)c4c3=O)[C@H](O)[C@@H](O)[C@@H]2O)[C@H](O)[C@H](O)[C@H]1O` [RUTIN] was tested. Which IC50 [1] did it give?
A: Its IC50 is 1.4 µM.

Q: With `F[B-]1(F)Nc2ccccc2C2=[N+]1NC(c1ccncc1)C2` (configuration not stated) as the compound, how does the MIC [5] read?
A: Its MIC is 37.5 µg/mL (≈ 131 µM).

Q: What about the IC50 [8] of the same compound?
A: Its IC50 is > 699 µM.

Q: For `C=C(C)C(CC=C(C)C)Cc1c(O)cc(OC)c2c1O[C@H](c1ccc(O)cc1O)CC2=O` (some centres not stated) [KURARINONE], which zone of inhibition at 10 µg/disc [18] is on record?
A: Its zone of inhibition at 10 µg/disc is 14 mm.

Q: What about the IC50 [19] of the same compound?
A: Its IC50 is 2.19 µM.

Q: And the zone of inhibition at 10 µg/disc [20]?
A: The zone of inhibition at 10 µg/disc was 14 mm.

Q: And the zone of inhibition at 10 µg/disc [21]?
A: Its zone of inhibition at 10 µg/disc is 14 mm.

Q: How did the IC50 [19] turn out when `C=C(C)C(CCC(C)(C)O)Cc1c(O)cc(OC)c2c1O[C@H](c1ccc(O)cc1O)CC2=O` (some centres not stated) was run?
A: The IC50 was 0.11 µM.

Q: How did the IC50 [1] turn out when `O=c1c(O[C@@H]2O[C@H](CO)[C@H](O)[C@H](O)[C@H]2O)c(-c2ccc(O)c(O)c2)oc2cc(O)cc(O)c12` [HYPEROSIDE] was run?
A: Its IC50 is 1.64 µM.

Q: Which results are given for `C=C(C)C(CC=C(C)C)Cc1c(O)cc(O)c2c1O[C@H](c1ccc(O)cc1O)CC2=O` (some centres not stated)?
A: zone of inhibition at 10 µg/disc [18]: 14 mm; MIC [22]: 3.12 µg/mL (≈ 7.36 µM); IC50 [19]: 4.71 µM; zone of inhibition at 10 µg/disc [20]: 14 mm; zone of inhibition at 10 µg/disc [21]: 14 mm

Q: For `Nc1ccccc1C1=NNC(c2cccnc2)C1` (configuration not stated), which MIC [5] is on record?
A: Its MIC is 150 µg/mL (≈ 629 µM).

Q: What about the IC50 [8] of the same compound?
A: The IC50 was 420 µM.

Q: For `COc1c(N2C[C@@H]3CCCN[C@@H]3C2)c(F)cc2c(=O)c(C(=O)O)cn(C3CC3)c12` [MOXIFLOXACIN], which IC50 [8] is on record?
A: Its IC50 is 2.99 µM.
